Where two headings read alike, the source gives them in different places.
Assays:
[1] = system: Human ovarian cancer cell line NIH:OVCAR-3; test: Antitumor study (1), combination with carboplatin, NIH:OVCAR-3 xenograft; settings: Day 21; ADC (1) 0.3 mg/kg iv Day 0, carboplatin 50 mg/kg iv Day 0
Protocol: Human ovarian cancer cell line NIH:OVCAR-3, which was purchased from ATCC, was suspended into Matrigel (Corning Inc.), subcutaneously transplanted at 1.0×10^7 cells into the right side of female nude mice, and the mice were randomly grouped 24 days after the transplantation (Day 0). The antibody-drug conjugate (1) (formula 4) (DAR: 7.9) was intravenously administered to the tail vein at a dose of 0.3 mg/kg on Day 0. […] Single administration groups of each drug, a combined administration group, and a solvent administration group as a control group were set up.

[2] = system: Human ovarian cancer cell line OV-90; test: Antitumor study (2), combination with carboplatin, OV-90 xenograft; settings: Day 21; ADC (1) 1 mg/kg iv Day 0, carboplatin 50 mg/kg iv Day 0
Excerpt: Human ovarian cancer cell line OV-90, which was purchased from ATCC, was suspended into Matrigel (Corning Inc.), subcutaneously transplanted at 2.5×10^6 cells into the right side of female nude mice, and the mice were randomly grouped 14 days after the transplantation (Day 0). […] Single administration groups of each drug, a combined administration group, and a solvent administration group as a control group were set up.

[3] = system: Human ovarian cancer cell line OV-90; test: Antitumor study (4), combination with gemcitabine, OV-90 xenograft; format: in vivo, mouse; settings: Day 21; ADC (1) 3 mg/kg iv Day 0, gemcitabine 15 mg/kg iv Day 0, 7, 14
Protocol: (§1) Measurement and calculation formula: In the study, the major axis and minor axis of tumors were measured up to 3 times a week with an electronic digital caliper (CD15-CX, Mitutoyo Corp.), and the tumor volume (mm^3) was calculated. The calculation formula is as shown below.

[4] = system: Human ovarian cancer cell line OV-90; format: in vivo, mouse; settings: Day 15; ADC (1) 10 mg/kg iv Day 0, carboplatin 50 mg/kg iv Day 0, paclitaxel 20 mg/kg iv Day 1
Protocol: Measurement and calculation formula: In the study, the major axis and minor axis of tumors were measured twice a week with an electronic digital caliper (CD15-CX, Mitutoyo Corp.), and the tumor volume (mm^3) was calculated. The calculation formula is as shown below.

[5] = system: Human ovarian cancer cell line NIH:OVCAR-3; test: In vivo antitumor effect after long-term treatment of carboplatin and paclitaxel, NIH:OVCAR-3 xenograft; design: species or system mouse; settings: carboplatin 50 mg/kg and paclitaxel 30 mg/kg iv
Protocol: as §1, with “below. Tumor volume (mm^3)=½×Major axis (mm)×[Minor axis (mm)]^2.” for “below.”
Carboplatin was diluted with physiological saline, and intravenously administered to the tail vein in a fluid volume of 10 mL/kg. Paclitaxel was dissolved with cremophor and ethanol (1:1), diluted with physiological saline, and then intravenously administered to the tail vein in a fluid volume of 10 mL/kg. The antibody-drug conjugate (formula 4) was diluted with ABS buffer (10 mM acetate buffer [pH 5.5], 5% sorbitol), and intravenously administered to the tail vein in a fluid volume of 10 mL/kg.
For clarity, the antibody comprised in the antibody-drug conjugate (1) administered is referred as “H01L02” in the present invention.

N.N.O=C([O-])C1(C(=O)[O-])CCC1.[Pt+2] [carboplatin]
tumor growth inhibition (TGI) [1]: 47%
TGI [2]: 23%

Nc1ccn([C@@H]2O[C@H](CO)[C@@H](O)C2(F)F)c(=O)n1 [gemcitabine]
TGI [3]: 23%

carboplatin and paclitaxel
TGI [4]: 65%
tumor response to the first dosing ([5]; 12 mice): the tumor regressed in all cases
time to tumor regrowth after the first dosing ([5]; regrowth in all most cases): ≤ 6 weeks

Reference: patent US20240390512A1, “METHODS OF TREATING CHEMOTHERAPY-RESISTANT CANCER WITH AN ANTIBODY-DRUG CONJUGATE” (DAIICHI SANKYO COMPANY, LIMITED, priority 2021, published 2024)
